Reference: PMC9401600 (Chemmedchem, 2022)

Legend:
PAMPA‐BBB assay = format: in vitro ADME; settings: for predictive penetration in the CNS: PAMPA‐BBB classification; for Papp: pig, PAMPA‐BBB, PBS:EtOH (70 : 30), read-out: Permeability (Pe) experimental value
Protocol: To evaluate the brain penetration of the different compounds, a parallel artificial membrane permeation assay for BBB was used, following the method described by Di et al..[33] The in vitro Pe of fourteen commercial drugs through lipid extract of porcine brain membrane together with the test compounds were determined. Commercial drugs and assayed compounds were tested using a mixture of PBS:EtOH (70 : 30).

EHMT1 (GLP) = biological target: T1, EHMT1 (GLP) (Homo sapiens, UniProt Q9H9B1); assay: EHMT1 (GLP) chemiluminescent assay; format: biochemical; settings: 0.01 μM to 10 μM
T1 construct: purchased
T1 sequence (Q9H9B1 1-1298): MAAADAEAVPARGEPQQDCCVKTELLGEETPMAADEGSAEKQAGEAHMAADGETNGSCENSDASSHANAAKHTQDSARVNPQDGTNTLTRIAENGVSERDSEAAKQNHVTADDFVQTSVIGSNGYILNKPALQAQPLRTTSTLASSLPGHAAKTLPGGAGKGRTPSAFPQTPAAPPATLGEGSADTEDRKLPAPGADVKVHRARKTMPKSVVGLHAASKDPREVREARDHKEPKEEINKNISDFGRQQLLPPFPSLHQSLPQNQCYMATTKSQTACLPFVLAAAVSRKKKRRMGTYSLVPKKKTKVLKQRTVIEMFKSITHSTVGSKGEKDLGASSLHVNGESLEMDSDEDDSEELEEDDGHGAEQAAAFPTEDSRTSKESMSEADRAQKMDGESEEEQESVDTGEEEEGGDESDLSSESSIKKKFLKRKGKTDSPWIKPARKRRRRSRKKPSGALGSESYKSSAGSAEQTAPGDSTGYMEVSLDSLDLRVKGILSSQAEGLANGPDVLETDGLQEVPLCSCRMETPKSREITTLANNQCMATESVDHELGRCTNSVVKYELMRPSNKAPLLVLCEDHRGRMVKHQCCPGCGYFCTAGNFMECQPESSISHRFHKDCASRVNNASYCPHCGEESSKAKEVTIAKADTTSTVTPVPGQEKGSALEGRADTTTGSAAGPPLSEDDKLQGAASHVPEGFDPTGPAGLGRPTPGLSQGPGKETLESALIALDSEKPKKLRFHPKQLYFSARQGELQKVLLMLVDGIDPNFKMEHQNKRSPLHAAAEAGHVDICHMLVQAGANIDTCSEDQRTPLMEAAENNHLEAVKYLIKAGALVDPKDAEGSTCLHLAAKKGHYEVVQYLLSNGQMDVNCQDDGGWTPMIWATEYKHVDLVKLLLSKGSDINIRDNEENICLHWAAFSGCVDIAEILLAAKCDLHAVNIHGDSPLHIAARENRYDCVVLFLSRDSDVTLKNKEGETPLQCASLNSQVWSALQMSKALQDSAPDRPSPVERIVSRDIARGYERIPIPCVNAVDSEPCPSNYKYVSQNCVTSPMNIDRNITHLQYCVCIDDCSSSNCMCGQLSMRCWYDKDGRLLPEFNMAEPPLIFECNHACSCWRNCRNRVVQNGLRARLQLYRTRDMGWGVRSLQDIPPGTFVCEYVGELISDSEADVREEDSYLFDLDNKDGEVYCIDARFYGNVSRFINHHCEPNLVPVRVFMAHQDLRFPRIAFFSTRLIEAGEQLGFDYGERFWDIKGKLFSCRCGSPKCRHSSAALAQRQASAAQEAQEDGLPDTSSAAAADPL
Protocol: Last, but not least, further characterization of the best candidates was performed assessing their selectivity. Thus, we tested them against EHMT1 (G9a‐like protein, GLP). […] However, they presented a very low percentage, and furthermore this trend was not observed at high doses.
The assay was carried out using EHMT1 (GLP) Chemiluminescent Assay kit. Compounds were added on a 96‐well plate precoated with histone substrate supplied by kit. 30 μL of master mixture SAM were added and the reaction was initiated adding 20 μL of diluted EHMT1 (GLP) enzyme. The reaction was incubated at room temperature (RT) for 1 hour. The plate was washed three times with 200 μl TBST buffer. 100 μL of Blocking buffer were added to every well and the plate was incubated at RT for 10 minutes with shaking. Supernatant was removed and 100 μl of Primary antibody were added per well. The plate was incubated at RT for 1 hour with slow shaking. The plate was washed three times with 200 μl TBST buffer. 100 μL of Blocking buffer were added to every well and the plate was incubated at RT for 10 minutes with shaking. 100 μl of Secondary HRP‐labeled antibody were added per well and the plate was incubated at RT for 30 minutes with slow shaking. The plate was washed three times with 200 μl TBST buffer. Finally, 100 μl of substrate mix were added and the luminescence was measurement with integration time of 1 second in Perkin Elmer EnSpire Multimode plate reader.

[1] = test system: Aβ deposits in CL2006 strain; assay: Thioflavin‐S staining of Aβ aggregation; format: in vivo, Caenorhabditis elegans; settings: head region, after 5 days of treatment, compared to the vehicle group
Protocol: The transgenic AD strain CL2006 is characterized by the expression of human Aβ1‐42 under the control of a muscle‐specific promoter, making it suitable to answer this objective in our work. As we mentioned above, UNC0638 was used as a positive control. […] After 5 days of treatment, adult CL2006 C. elegans were fixed in 4 % Paraformaldehyde/Phosphate‐buffered saline (PBS) (pH 7.5), for 24 hours at 4 °C. […] On the last day, nematodes were stained with 0.125 % Thioflavin‐S (ThS) (Sigma, CAS# 1326–12‐1) in 50 % ethanol (EtOH) for 2 min, destained in 50 % EtOH for 2 min, washed 3 times with PBS. To prepare the glass slide for microscopy, approximately 10 μL volume was transferred on a droplet of Fluoromount G (Electron Microscopy Sciences, CAT#17984‐25). Fluorescence images were acquired using a 20 Å∼ objective of a fluorescence microscope. Aβ in the head region of worms were quantified by counting the number of Th−S positive spots using ImageJ and were expressed as Aβ deposits/anterior area.

| Papp (PAMPA‐BBB assay) | SMILES | predictive penetration in the CNS (PAMPA‐BBB assay) | activity against EHMT1 (in words) (EHMT1 (GLP)) | reduction of Aβ deposition (Thioflavin S‐positive particles) [1] |
| --- | --- | --- | --- | --- |
| 10.9 ± 0.4 ×10⁻⁶ cm/s | CCN1C[C@H](NC(=O)c2cc3cc(Cl)ccc3[nH]2)[C@@H](OC)C1 [F, 5‐chloro‐N‐((3S,4S)‐1‐ethyl‐4‐methoxypyrrolidin‐3‐yl)‐1H‐indole‐2‐carboxamide] | CNS+ (compounds of high BBB permeation (CNS+): Pe (10^−6 cm ⋅ s^−1) >5.14) | slight activity against EHMT1 at low doses | approximately 40% |
| 17.4 ± 2.4 ×10⁻⁶ cm/s | Cc1cc(CNC(=O)C(c2ccc(F)cc2)N2CCCCC2)cnc1C (stereo not drawn) [H] | CNS+ (compounds of high BBB permeation (CNS+): Pe (10^−6 cm ⋅ s^−1) >5.14) | slight activity against EHMT1 at low doses | 3% |
| 2.2 ± 0.1 ×10⁻⁶ cm/s | Cc1cc(N2CCN(Cc3cc(CN4CCCC4)cs3)CC2)nc(N)n1 [E] | CNS+/‐ | did not inhibit EHMT1 | approximately 25% |
